{"source": "ChEMBL document CHEMBL1133079", "about": "“Synthesis and antibacterial activity of novel 6-O-substituted erythromycin A derivatives” (2000)", "key": {"[1]": {"test_system": "Streptococcus pyogenes", "test": "In vitro minimum inhibitory concentration against Streptococcus pyogenes PIU 2548 using standard agar dilution method", "type": "functional"}, "[2]": {"test_system": "Streptococcus pyogenes", "test": "In vitro minimum inhibitory concentration against Streptococcus pyogenes 930 using standard agar dilution method", "type": "functional"}, "[3]": {"test_system": "Staphylococcus aureus", "test": "In vitro minimum inhibitory concentration against Staphylococcus aureus A5177 using standard agar dilution method", "type": "functional"}, "[4]": {"test_system": "Streptococcus pyogenes", "test": "In vitro minimum inhibitory concentration against Streptococcus pyogenes EES61 using standard agar dilution method", "type": "functional"}, "[5]": {"test_system": "Haemophilus influenzae", "test": "In vitro minimum inhibitory concentration against Haemophilus influenzae DILL using standard agar dilution method", "type": "functional"}, "[6]": {"test_system": "Staphylococcus aureus", "test": "In vitro minimum inhibitory concentration against Staphylococcus aureus 6538P using standard agar dilution method"}, "[7]": {"test_system": "Streptococcus pneumoniae", "test": "In vitro minimum inhibitory concentration against Streptococcus pneumoniae ATCC 6303.", "type": "functional"}, "[8]": {"test_system": "Streptococcus pneumoniae", "test": "In vitro minimum inhibitory concentration against Streptococcus pneumoniae 5737.", "type": "functional"}, "[9]": {"test_system": "Streptococcus pneumoniae", "test": "In vitro minimum inhibitory concentration against Streptococcus pneumoniae 5649.", "type": "functional"}, "[10]": {"test_system": "Staphylococcus aureus", "test": "In vitro minimum inhibitory concentration against Staphylococcus aureus 6538P using standard agar dilution method", "type": "functional"}, "[11]": {"test_system": "Staphylococcus aureus", "test": "In vitro minimum inhibitory concentration against Staphylococcus aureus A5177.", "type": "functional"}}, "data": [{"compound": "CCCO[C@@]1(C)C[C@@H](C)C(=O)[C@H](C)[C@@H](O)[C@](C)(O)[C@@H](CC)OC(=O)[C@H](C)[C@@H](O[C@H]2C[C@@](C)(OC)[C@@H](O)[C@H](C)O2)[C@H](C)[C@H]1O[C@@H]1O[C@H](C)C[C@H](N(C)C)[C@H]1O", "values": [{"measurement": "MIC", "setting": "[1]", "result": 64, "unit": "µg/mL"}, {"measurement": "MIC", "setting": "[2]", "result": "> 128", "unit": "µg/mL"}, {"measurement": "MIC", "setting": "[3]", "result": 25, "unit": "µg/mL"}, {"measurement": "MIC", "setting": "[4]", "result": 0.05, "unit": "µg/mL"}, {"measurement": "MIC", "setting": "[5]", "result": 32, "unit": "µg/mL"}, {"measurement": "MIC", "setting": "[6]", "result": 3.1, "unit": "µg/mL"}]}, {"compound": "CC[C@H]1OC(=O)C(C)[C@@H](O[C@H]2C[C@@](C)(OC)[C@@H](O)[C@H](C)O2)[C@H](C)[C@@H](O[C@@H]2O[C@H](C)C[C@H](N(C)C)[C@H]2O)[C@@](C)(OC/C=N/Oc2ccccc2)C[C@@H](C)C(=O)[C@H](C)[C@@H](O)[C@]1(C)O", "note": "(single isomer, unassigned)", "values": [{"measurement": "MIC", "setting": "[7]", "result": 0.008, "unit": "µg/mL"}, {"measurement": "MIC", "setting": "[8]", "result": 128, "unit": "µg/mL"}, {"measurement": "MIC", "setting": "[1]", "result": 32, "unit": "µg/mL"}, {"measurement": "MIC", "setting": "[9]", "result": 16, "unit": "µg/mL"}, {"measurement": "MIC", "setting": "[10]", "result": 0.2, "unit": "µg/mL"}, {"measurement": "MIC", "setting": "[2]", "result": 128, "unit": "µg/mL"}, {"measurement": "MIC", "setting": "[4]", "result": 0.008, "unit": "µg/mL"}, {"measurement": "MIC", "setting": "[5]", "result": 4, "unit": "µg/mL"}, {"measurement": "MIC", "setting": "[11]", "result": 3.1, "unit": "µg/mL"}]}, {"compound": "CC[C@H]1OC(=O)[C@H](C)[C@@H](O[C@H]2C[C@@](C)(OC)[C@@H](O)[C@H](C)O2)[C@H](C)[C@@H](O[C@@H]2O[C@H](C)C[C@H](N(C)C)[C@H]2O)[C@](C)(OC)C[C@@H](C)C(=O)[C@H](C)[C@@H](O)[C@]1(C)O", "note": "[CLARITHROMYCIN]", "values": [{"measurement": "MIC", "setting": "[7]", "result": 0.06, "unit": "µg/mL"}, {"measurement": "MIC", "setting": "[8]", "result": "> 128", "unit": "µg/mL"}, {"measurement": "MIC", "setting": "[1]", "result": 32, "unit": "µg/mL"}, {"measurement": "MIC", "setting": "[9]", "result": 16, "unit": "µg/mL"}, {"measurement": "MIC", "setting": "[10]", "result": 0.2, "unit": "µg/mL"}, {"measurement": "MIC", "setting": "[2]", "result": "> 128", "unit": "µg/mL"}, {"measurement": "MIC", "setting": "[4]", "result": 0.03, "unit": "µg/mL"}, {"measurement": "MIC", "setting": "[5]", "result": 8, "unit": "µg/mL"}, {"measurement": "MIC", "setting": "[11]", "result": 6.2, "unit": "µg/mL"}]}, {"compound": "CC[C@H]1OC(=O)[C@H](C)[C@@H](O[C@H]2C[C@@](C)(OC)[C@@H](O)[C@H](C)O2)[C@H](C)[C@@H](O[C@@H]2O[C@H](C)C[C@H](N(C)C)[C@H]2O)[C@](C)(O)C[C@@H](C)C(=O)[C@H](C)[C@@H](O)[C@]1(C)O", "note": "[ERYTHROMYCIN]", "values": [{"measurement": "MIC", "setting": "[7]", "result": 0.06, "unit": "µg/mL"}, {"measurement": "MIC", "setting": "[8]", "result": "> 128", "unit": "µg/mL"}, {"measurement": "MIC", "setting": "[1]", "result": 32, "unit": "µg/mL"}, {"measurement": "MIC", "setting": "[9]", "result": 16, "unit": "µg/mL"}, {"measurement": "MIC", "setting": "[10]", "result": 0.2, "unit": "µg/mL"}, {"measurement": "MIC", "setting": "[2]", "result": "> 128", "unit": "µg/mL"}, {"measurement": "MIC", "setting": "[4]", "result": 0.03, "unit": "µg/mL"}, {"measurement": "MIC", "setting": "[5]", "result": 4, "unit": "µg/mL"}, {"measurement": "MIC", "setting": "[11]", "result": 6.2, "unit": "µg/mL"}]}]}
